US10934577B2, “Assays for resistance to echinocandin-class drugs” (priority 2005, dated 2021)

Key:
[1] = system: C. albicans strains CAI4 and M70; assay: Isolation of spontaneous caspofungin-resistant mutants by direct selection on solid media containing caspofungin; assay type: cell-based, Candida albicans; settings: both strains CAI4 and M70; YPD plates with 4 μg/ml caspofungin (forty times the MIC)
Protocol: (§1) Spontaneous mutants of C. albicans strains CAI4 and M70 resistant to caspofungin were isolated by direct selection on solid growth media containing 4 μg/ml (forty times the MIC) caspofungin. The frequency of formation of spontaneous caspofungin-resistant derivatives for both strains was <10^−8 mutants per viable cell. For both strains, the formation of rare shrunken slow-growing colonies on the plates with caspofungin was observed. […] After prolonged incubation for more than 10 days, a small fraction of small shrunken colonies gave rise to smooth fast-growing derivatives which were able to propagate on caspofungin-containing media after reinoculation. Only one such derivative per individual plate/culture was saved and used for further analysis. In total, 35 and 50 isolates with reduced susceptibility to caspofungin were isolated for strains CAI4 and M70, respectively. […] Details of the isolation procedure are set forth in Example 2.
Spontaneous caspofungin-resistant mutants of C. albicans strains CAI4 and M70 were isolated by plating 100 ul (˜10^8 cells) of an 18 h liquid YPD culture on YPD plates containing 4 μg/ml caspofungin. Serial dilutions of the overnight cultures were plated on the YPD plates without antibiotic selection to precisely determine starting colony counts. Selection plates were incubated for 10-14 days at 30° C. […]

[2] = system: C. albicans strains CAI4 and M70, laboratory-derived isolates with reduced susceptibility; assay: In vitro caspofungin susceptibility testing, liquid microbroth dilution assay in RPMI-1640 (NCCLS M27-A2); assay type: cell-based; settings: Candida albicans; all laboratory-derived isolates (35 from CAI4, 50 from M70) selected on 4 μg/ml caspofungin
Protocol: as §1
C. albicans strain CAI4 was purchased from ATCC (ATCC, Manassas, Va.). C. albicans strain M70 was from the Merck culture collection (MRL, Rahway, N.J.). Strains were grown on yeast extract-peptone-dextrose (YPD) medium (1% yeast extract, 2% Bacto Peptone, 2% dextrose). For growth of strain CAI4, YPD medium was supplemented by uridine (Sigma-Aldrich, St. Louis, Mo.) at 25 mg/ml. Caspofungin (Merck, Rahway, N.J.) was added directly to YPD at 4 μg/ml. […]

CC[C@H](C)C[C@H](C)CCCCCCCCC(=O)N[C@H]1C[C@@H](O)[C@@H](NCCN)NC(=O)[C@@H]2[C@@H](O)CCN2C(=O)[C@H]([C@H](O)CCN)NC(=O)[C@H]([C@H](O)[C@@H](O)c2ccc(O)cc2)NC(=O)[C@@H]2C[C@@H](O)CN2C(=O)[C@H]([C@@H](C)O)NC1=O [caspofungin]
frequency of formation of spontaneous caspofungin-resistant derivatives [1]: < 10^−8 mutants per viable cell | MIC [2]: > 16 µg/mL
